Read-outs that look alike come from different tables or passages of the source.
What was measured:
[1] = target: GDP-bound protein (aa 1-169), containing both G12C and C118A amino acid substitutions (Homo sapiens, UniProt P01116, C118A/G12C); assay: Coupled Nucleotide Exchange Assay (SOS-mediated nucleotide exchange, AlphaScreen); assay type: biochemical; conditions: 2 hours compound pre-incubation
Experimental: Coupled Nucleotide Exchange Assay: Purified GDP-bound […] protein (aa 1-169), containing both G12C and C118A amino acid substitutions and an N-terminal His-tag, was pre-incubated with a compound dose-response titration for 2 hours in assay buffer (25 mM HEPES pH 7.4, 10 mM MgCl2, and 0.01% Triton X-100). Following compound pre-incubation, purified SOS protein (aa 564-1049) and GTP (Roche 10106399001) were added to the assay wells and incubated for an additional hour. […] The assay plates were then read on a PerkinElmer EnVision Multilabel Reader, using AlphaScreen® technology, and data were analyzed using a 4-parameter logistic model to calculate IC50 values.

[2] = test system: Phosphorylation of ERK½ in MIA PaCa-2 cells; assay: Phospho-ERK½ MSD Assay in MIA PaCa-2 cells; assay type: cell-based; conditions: 4 hours compound treatment, 10 ng/mL EGF for 10 min, read-out: p-ERK IC50 (MIA PaCa-2)
Experimental: (§1) Phospho-ERK½ MSD Assay: MIA PaCa-2 (ATCC® CRL-1420™) and A549 (ATCC® CCL-185™) cells were cultured in RPMI 1640 Medium (ThermoFisher Scientific 11875093) containing 10% fetal bovine serum (ThermoFisher Scientific 16000044) and 1× penicillin-streptomycin-glutamine (ThermoFisher Scientific 10378016). Sixteen hours prior to compound treatment, MIA PaCa-2 or A549 cells were seeded in 96-well cell culture plates at a density of 25,000 cells/well and incubated at 37° C., 5% CO2. A compound dose-response titration was diluted in growth media, added to appropriate wells of a cell culture plate, and then incubated at 37° C., 5% CO2 for 4 hours. Following compound treatment, cells were stimulated with 10 ng/mL EGF (Roche 11376454001) for 10 min, washed with ice-cold Dulbecco's phosphate-buffered saline, no Ca^2+ or Mg^2+ (ThermoFisher Scientific 14190144), and then lysed in RIPA buffer (50 mM Tris-HCl pH 7.5, 1% Igepal, 0.5% sodium deoxycholate, 150 mM NaCl, and 0.5% sodium dodecyl sulfate) containing protease inhibitors (Roche 4693132001) and phosphatase inhibitors (Roche 4906837001). Cell lysates were stored frozen at −80° C. overnight. Phosphorylation of ERK½ in compound-treated lysates was assayed using Phospho-ERK½ Whole Cell Lysate kits (Meso Scale Discovery K151DWD) according to the manufacturer's protocol. Assay plates were read on a Meso Scale Discovery Sector Imager 6000, and data were analyzed using a 4-parameter logistic model to calculate IC50 values.

[3] = test system: Phosphorylation of ERK½ in A549 cells; assay: Phospho-ERK½ MSD Assay in A549 cells; assay type: cell-based; conditions: 4 hours compound treatment, 10 ng/mL EGF for 10 min, read-out: p-ERK IC50 (A549)
Experimental: as §1

[4] = Homo sapiens, MIA PaCa-2, MIA PaCa-2 cells

Chain of GDP-bound protein (aa 1-169), containing both G12C and C118A amino acid substitutions (P01116 1-169 isoform P01116-2 G12C/C118A): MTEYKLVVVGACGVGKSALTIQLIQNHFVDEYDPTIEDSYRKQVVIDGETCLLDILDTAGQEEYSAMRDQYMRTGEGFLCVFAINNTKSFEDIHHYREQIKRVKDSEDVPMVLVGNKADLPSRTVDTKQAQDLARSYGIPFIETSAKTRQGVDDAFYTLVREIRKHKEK

Row | SMILES | Coupled exchange IC50 [1] | IC50 [2, 4] | IC50 ([3]; Homo sapiens, A549, A549 cells) | IC50 ([2]; MIA PaCa-2 cells) | IC50 ([3]; A549 cells)
1 | C=CC(=O)N1CCN(c2nnc(-c3c(C)ccc4[nH]ncc34)c3cc(-c4c(O)cccc4F)c(Cl)cc23)CC1 [Example 10-12, 1-(4-(7-chloro-6-(2-fluoro-6-hydroxyphenyl)-4-(5-methyl-1H-indazol-4-yl)-1-phthalazinyl)-1-piperazinyl)-2-propen-1-one] | 0.912 µM | 72.6 µM | > 100 µM |  | 
2 | C=CC(=O)N1CCN(c2snc3c(F)c(-c4cc(O)cc5ccccc45)c(Cl)cc23)[C@@H](CF)C1 (racemic) [Example 7-2, 1-(4-(5-chloro-7-fluoro-6-(3-hydroxy-1-naphthalenyl)-2,1-benzothiazol-3-yl)-3-(fluoromethyl)-1-piperazinyl)-2-pxopen-1-one] | 0.180 µM | 0.222 µM | > 100 µM |  | 
3 | C=CC(=O)N1CCN(c2snc3c(F)c(-c4cc(O)ccc4Br)c(Cl)cc23)CC1 [Example 1-1, 1-(4-(6-(2-bromo-5-hydroxyphenyl)-5-chloro-7-fluorobenzo[c]isothiazol-3-yl)piperazin-1-yl)prop-2-en-1-one] | 0.355 µM | 2.55 µM | > 33.3 µM |  | 
4 | C=CC(=O)N1CCN(c2snc3c(F)c(-c4cc(O)cc5ccccc45)c(Cl)cc23)CC1 (single isomer, unassigned) [Example 3-1-2, 1-(4-(5-chloro-7-fluoro-6-(3-hydroxy-1-naphthalenyl)-2,1-benzothiazol-3-yl)-1-piperazinyl)-2-propen-1-one] | 0.302 µM |  |  | 2.35 µM | > 100 µM
5 | C=CC(=O)N1CCN(c2snc3c(F)c(-c4cc(O)cc5ccccc45)c(Cl)cc23)C[C@H]1C [Example 5-7, 1-((2R)-4-(5-chloro-7-fluoro-6-(3-hydroxy-1-naphthalenyl)-2,1-benzothiazol-3-yl)-2-methyl-1-piperazinyl)-2-propen-1-one] | 0.815 µM | 3.79 µM | > 100 µM |  | 
6 | C=CC(=O)N1CCN(c2nc(=O)n(-c3ccccc3C(C)C)c3cc(-c4cccc(Cl)c4Cl)c(Cl)cc23)[C@@H](C)C1 [Example 9-10, 6-chloro-7-(2,3-dichlorophenyl)-4-((2S)-2-methyl-4-(2-propenoyl)-1-piperazinyl)-1-(2-(2-propanyl)phenyl)-2(1H)-quinazolinone] | 0.101 µM | 0.117 µM | 66.5 µM |  | 
7 | C=CC(=O)N1CC(N(C)c2snc3c(F)c(-c4cc(O)cc5ccccc45)c(Cl)cc23)C1 [Example 5-9, 1-(3-((5-Chloro-7-fluoro-6-(3-hydroxynaphthalen-1-yl)benzo[c]isothiazol-3-yl)(methyl)amino)azetidin-1-yl)prop-2-en-1-one] | 0.139 µM | 0.822 µM | > 100 µM |  | 
8 | C=CC(=O)N1CCN(c2nc(=O)n(-c3ccccc3C(C)C)c3cc(-c4c(C)ccc5[nH]ncc45)c(Cl)cc23)CC1 (single isomer, unassigned) [Example 11-1-2, 6-chloro-7-(5-methyl-1H-indazol-4-yl)-1-(2-(2-propanyl)phenyl)-4-(4-(2-propenoyl)-1-piperazinyl)-2(1H)-quinazolinone] | 0.151 µM |  |  | 0.016 µM | 21.7 µM
9 | C=CC(=O)N1CCN(c2snc3c(F)c(-c4cc(O)c(F)cc4F)c(Cl)cc23)CC1 [Example 3-10, 1-(4-(5-chloro-6-(2,4-difluoro-5-hydroxyphenyl)-7-fluoro-2,1-benzothiazol-3-yl)-1-piperazinyl)-2-propen-1-one] | 4.74 µM | 66.4 µM | 11.1 µM |  | 
10 | C=CC(=O)N1CCN(c2snc3nc(-c4c(C)ccc5[nH]ncc45)c(Cl)cc23)C(C)C1 (single isomer, unassigned) [Example 2-6-2, 1-((3R)-4-(5-chloro-6-(5-methyl-1H-indazol-4-yl)[1,2]thiazolo[3,4-b]pyridin-3-yl)-3-methyl-1-piperazinyl)-2-propen-1-one or 1-((3S)-4-(5-chloro-6-(5-methyl-1H-indazol-4-yl)[1,2]thiazolo[3,4-b]pyridin-3-yl)-3-methyl-1-piperazinyl)-2-propen-1-one] | 1.25 µM | 1.29 µM | 3.7 µM |  | 
11 | C=CC(=O)N1CCN(c2snc3c(F)c(-c4cc(N)ccc4Cl)c(Cl)cc23)CC1 [Example 3-19, 1-(4-(6-(5-amino-2-chlorophenyl)-5-chloro-7-fluoro-2,1-benzothiazol-3-yl)-1-piperazinyl)-2-propen-1-one] | 0.954 µM | 2.03 µM | > 33.3 µM |  | 
12 | C=CC(=O)N1CCN(c2nnc(-c3cc(Cl)ccc3C)c3cc(-c4c(O)cccc4F)c(Cl)cc23)CC1 [Example 10-3, 1-(4-(7-chloro-4-(5-chloro-2-methylphenyl)-6-(2-fluoro-6-hydroxyphenyl)-1-phthalazinyl)-1-piperazinyl)-2-propen-1-one] | 1.10 µM | 9.33 µM | > 100 µM |  | 
13 | C=CC(=O)N1CCN(c2snc3c(F)c(-c4c(C)ccc5[nH]ncc45)c(Cl)cc23)CC1 [Example 3-5, 1-(4-(5-chloro-7-fluoro-6-(5-methyl-1H-indazol-4-yl)-2,1-benzothiazol-3-yl)-1-piperazinyl)-2-propen-1-one] | 0.693 µM | 5.26 µM | 3.7 µM |  | 
14 | C=CC(=O)N1CCN(c2nnc(-c3cccnc3C)c3cc(-c4c(O)cccc4F)c(Cl)cc23)CC1 [Example 10-8] | 1.34 µM | 12.9 µM | > 100 µM |  | 
15 | C=CC(=O)N1CCN(c2snc3c(F)c(-c4c(O)cccc4F)c(Cl)cc23)C(C(F)F)C1 (racemic) [Example 2-9, 1-(4-(5-chloro-7-fluoro-6-(2-fluoro-6-hydroxyphenyl)-2,1-benzothiazol-3-yl)-3-(difluoromethyl)-1-piperazinyl)-2-propen-1-one] | 0.301 µM | 0.747 µM | > 100 µM |  | 
16 | C=CC(=O)N1CCN(c2snc3c(F)c(-c4cc(O)cc(F)c4F)c(Cl)cc23)CC1 [Example 3-16, 1-(4-(5-chloro-6-(2,3-difluoro-5-hydroxyphenyl)-7-fluoro-2,1-benzothiazol-3-yl)-1-piperazinyl)-2-propen-1-one] | 2.60 µM | 21.3 µM | > 100 µM |  | 
17 | C=CC(=O)N1CCN(c2snc3c(F)c(-c4cc(O)ccc4C)c(Cl)cc23)CC1 [Example 3-8, 1-(4-(5-chloro-7-fluoro-6-(5-hydroxy-2-methylphenyl)-2,1-benzothiazol-3-yl)-1-piperazinyl)-2-propen-1-one] | 1.07 µM | 7.05 µM | > 100 µM |  | 
18 | C=CC(=O)N1CCN(c2nc(=O)n(-c3ccccc3C(C)C)c3cc(-c4cc(O)cc5ccccc45)c(Cl)cc23)CC1 [Example 9-13, 6-chloro-7-(3-hydroxy-1-naphthalenyl)-1-(2-(2-propanyl)phenyl)-4-(4-(2-propenoyl)-1-piperazinyl)-2(1H)-quinazolinone] | 0.306 µM | 0.078 µM | 12.8 µM |  | 
19 | C=CC(=O)N1CCN(c2nc(=O)n(-c3ccccc3C(C)C)c3cc(-c4cc(N)ccc4Cl)c(Cl)cc23)[C@@H](C)C1 [Example 9-3, 7-(5-amino-2-chlorophenyl)-6-chloro-4-((2S)-2-methyl-4-(2-propenoyl)-1-piperazinyl)-1-(2-(2-propanyl)phenyl)-2(1H)-quinazolinone] | 0.113 µM | 0.035 µM | 66.1 µM |  | 
20 | C=CC(=O)N1CCN(c2nc(=O)n(-c3ccncc3C3CC3)c3cc(-c4c(O)cccc4F)c(Cl)cc23)[C@@H](C)C1 (single isomer, unassigned) [Example 9-7-1] |  |  |  | 0.023 µM | 14.9 µM
21 | C=CC(=O)N1CCN(c2nc(=O)n(-c3ccncc3C3CC3)c3cc(-c4c(O)cccc4F)c(Cl)cc23)[C@@H](C)C1 (single isomer, unassigned) [Example 9-7-2] |  |  |  | 0.237 µM | 62 µM

Source: patent US11285135B2 (AMGEN INC., priority 2016, dated 2022)
